# US9168243B2, “Pharmaceutical compositions comprising 8-substituted dibenzylbutyrolactone lignans” (priority 2010, dated 2015)
# Entries after “also recorded” stand apart in the source; their conditions may differ.
# Key:
# [1] = test system: LNCaP prostate cancer cells; assay: Flow cytometric screen for sensitization to TRAIL-induced apoptosis (nuclear fragmentation by propidium iodide, mitochondrial depolarization by TMRM); type: cell-based
# Method: Flow cytometric analysis of apoptosis with HTS platform was performed on cells that were plated on a 96-well plate as triplicate samples. After 24 hours in androgen-deprived conditions, the cells were pretreated with 40 μM lignans or lignan derivatives for 1 hour prior to addition of 10 ng/ml izTRAIL. Twenty hours later the plate was centrifuged with a culture plate rotor (1000 rpm, 3 minutes). For analysis of nuclear fragmentation, propidium iodide (PI) buffer (40 mM Na-citrate, 0.3% Triton X-100, 50 μg/ml PI; Sigma) was added to the wells. After 10 minutes incubation at room temperature, the plate was analyzed with LSRII flow cytometer equipped with HTS platform (PE-A channel). The fraction of sub-G0/G1 events (nuclear fragmentation) was gated as a measure of apoptotic cell death. For detection of mitochondrial depolarization, the cells were detached by trypsinization of the cells and incubated in 20 nM tetramethylrhodamine (TMRM; Invitrogen) in warm culture medium for 10 minutes before analysis. The plate was analyzed with LSRII flow cytometer equipped with HTS platform (FSC, PE-A channel). The cells with decreased TMRM incorporation were considered to have undergone mitochondrial membrane depolarization. Activated caspase-3 in cells was labeled with phycerythrin (PE)-conjugated antibody according to manufacturer's protocol (BD Pharmingen) and analyzed by FacsCalibur flow cytometer (FL-2, FSC).
# LNCaP cells were cultured in the absence of 1 nM androgen and incubated with lignan compounds (40 μM) for 1 hour before izTRAIL treatment (10 ng/ml) or control for 20 hours. The samples were screened for nuclear fragmentation by propidium iodide labeling (FIG. 1A) or mitochondrial depolarization by TMRM labeling (FIG. 1B). The plates were analyzed with LSRII flow cytometer equipped with HTS platform (FSC, PE-A channels). The fraction of sub-G0/G1 events (nuclear fragmentation; PE-A channel) was gated as a measure of apoptotic cell death (FIG. 1A) and the cells with decreased TMRM incorporation (PE-A channel) were considered to have undergone mitochondrial membrane depolarization (FIG. 1B). Representative histograms and dot blots for control, TRAIL, nortrachelogenin (NTG) and NTG+TRAIL treatments are viewed.
# Importantly, substitution with methyl group at position 8 further increases activity of dibenzylbutyrolactone lignans in sensitization of LNCaP prostate cancer cells to TRAIL-mediated apoptosis (FIG. 8). LNCaP cells were cultured in the absence of 1 nM androgen and incubated with indicated lignan compounds (40 μM) for 1 hour before izTRAIL treatment (10 ng/ml) or control for 20 hours. The cells were disrupted and the nuclei labeled for DNA content with propidium iodide. The samples were analyzed by flow cytometry and the fraction of sub-G0/G1 events (nuclear fragmentation) was detected as a measure of apoptotic cell death (mean±SEM; n=4). (FIG. 8A). Alternatively, LNCaP cells (+/−1 nM androgen) were incubated with 0-100 μM 8-Me-MAT for 1 hour after which total cell lysates were prepared and the samples were analyzed by Western blotting for Akt and phospho-Akt(ser473) expression.
# phospho-Akt(ser473) = assay: Western blot of Akt / phospho-Akt(ser473); type: cell-based
# Method: Whole cell lysates were prepared by lysing floating and attached cells in Laemmli sample buffer and boiling the samples for 10 minutes. Proteins were separated by SDS-PAGE and transferred on PVDF membrane (Millipore). Western blotting was performed using antibodies against Akt, phospho-Akt (Ser473), GSK-3β, phospho-GSK-3β (Ser9) and phospho-EGF receptor Tyr(1068) (Cell Signalling Technology), Actin (clone AC-40; Sigma-Aldrich), PI3K p85α (clone 4/PI3-Kinase; BD Pharmingen), EGF receptor, Insulin receptor β and IGF-I receptor β (Santa Cruz Biotechnology), and Phospho-tyrosine (clone 4G10; Millipore). HRP-conjugated secondary antibodies were from Southern Biotechnology Associates, Promega, and Amersham Biosciences. The results were visualized using the ECL method (Amersham Biosciences) on x-ray film. The presented Western blot results are representative of at least three independent experiments. Densitometric analysis of Western blots was done using scanned films with the MCID M5+ software. The values were normalized to the untreated control sample, which was given the value 1. The histograms in FIG. 4 present a relative decrease in ratio of phosphorylated vs. non-phosphorylated protein compared to control cells.
# LNCaP cells (+/−1 nM androgen) were treated with 0-100 μM enterolactone (ENL), matairesinol (MAT) or NTG for 1 hour prior to preparation of total cell lysates (FIG. 4A). The relative decrease in pAkt/Akt ratio was quantified from western blot analysis with Akt (60 kDa) and phospho-Akt(ser473) (Mean±SEM; n=4; Student's t-test *p<0.05, **p<0.01). Alternatively, androgen-deprived LNCaP cells were incubated with 100 μM NTG for 2 hours, fixed and labeled with Akt antibody followed by Alexa 546-conjugated secondary antibody. The samples were viewed at LSM 510 confocal microscope (63× oil objective, 543 nm excitation) (FIG. 4B). To examine the time-dependence of the observed inhibitory effect, LNCaP cells (+/−1 nM androgen) were incubated with 100 μM NTG for 0-8 hours after which total cell lysates were prepared. The western blot analysis with Akt, phospho-Akt(ser473), GSK-3β and phospho-GSK-3β(ser9) was quantified. The histogram presents a relative decrease in pAkt/Akt ratio (FIG. 4C.) or pGSK-3β/GSK-3β ratio (FIG. 4D.) compared to control cells (Mean±SEM; n=3). […]
# Importantly, substitution with methyl group at position 8 further increases activity of dibenzylbutyrolactone lignans in sensitization of LNCaP prostate cancer cells to TRAIL-mediated apoptosis (FIG. 8). […] The samples were analyzed by flow cytometry and the fraction of sub-G0/G1 events (nuclear fragmentation) was detected as a measure of apoptotic cell death (mean±SEM; n=4). […]
# [2] = cited from earlier work
# [3] = LNCaP +/- androgen, 100 μM NTG 2 hours, then medium change
smiles,measurement,setting,value
"COc1cc(CC2COC(=O)C2(O)Cc2ccc(O)c(OC)c2)ccc1O (stereo not shown) [NTG, Nortrachelogenin]",capacity to sensitize LNCaP prostate cancer cells to TRAIL-induced apoptosis,"[1]; androgen-deprived, 40 μM lignan 1 hour before 10 ng/ml izTRAIL, 20 hours",highest capacity of the tested lignan compounds; also recorded: most efficient of the 27 tested lignan compounds; also recorded: clearly enhances the activity
same,increase of the apoptotic response compared to TRAIL alone (factor),[1]; lignan in combination with TRAIL,3.2
same,Akt phosphorylation (pAkt/Akt ratio),"phospho-Akt(ser473); LNCaP +/- 1 nM androgen, 0-100 μM lignan, 1 hour (NTG also 100 μM, 0-8 hours)",downregulates Akt and GSK-3β phosphorylation; also recorded: inhibit Akt phosphorylation yet more efficiently than ENL or MAT
same,time after washout at which Akt activity starts returning,phospho-Akt(ser473); [3],10 min
same,time after washout to total recovery of Akt activity,phospho-Akt(ser473); [3],≤ 1 h
same,conversion into the mammalian lignans,[2]; in vivo,"not known to be converted into the mammalian lignans, ENL or END"
same,absorption and excretion,[2]; urine,absorbed and excreted in urine as such
